The target in assay [1] is T1, human full-length glucocorticoid receptor (Homo sapiens, UniProt P04150).
T1 construct: recombinantly expressed human full-length glucocorticoid receptor; purchased PanVera Co., Madison, Wis; P2816
T1 sequence (P04150 1-777): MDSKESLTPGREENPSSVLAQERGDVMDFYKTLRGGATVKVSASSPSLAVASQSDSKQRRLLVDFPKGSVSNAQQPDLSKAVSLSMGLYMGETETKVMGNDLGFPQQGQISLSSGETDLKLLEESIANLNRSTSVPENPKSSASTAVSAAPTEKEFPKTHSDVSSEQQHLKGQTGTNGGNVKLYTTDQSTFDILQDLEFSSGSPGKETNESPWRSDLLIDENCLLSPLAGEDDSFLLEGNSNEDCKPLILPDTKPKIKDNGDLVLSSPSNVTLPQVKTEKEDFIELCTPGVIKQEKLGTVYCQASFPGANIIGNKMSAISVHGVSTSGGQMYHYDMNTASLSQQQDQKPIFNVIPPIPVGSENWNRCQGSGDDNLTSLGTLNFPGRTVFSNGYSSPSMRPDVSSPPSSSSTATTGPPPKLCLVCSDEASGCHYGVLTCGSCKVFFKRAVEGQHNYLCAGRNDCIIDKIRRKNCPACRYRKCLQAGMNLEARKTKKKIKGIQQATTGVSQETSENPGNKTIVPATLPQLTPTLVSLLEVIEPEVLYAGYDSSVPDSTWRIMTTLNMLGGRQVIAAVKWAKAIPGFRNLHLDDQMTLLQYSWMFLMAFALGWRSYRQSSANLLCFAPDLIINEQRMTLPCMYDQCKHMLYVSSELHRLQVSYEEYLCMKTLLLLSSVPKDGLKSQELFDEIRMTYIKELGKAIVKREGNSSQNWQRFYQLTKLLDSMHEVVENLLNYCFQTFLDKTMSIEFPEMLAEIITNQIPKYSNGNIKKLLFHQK
Kind of assay: Glucocorticoid Receptor Binding Assay (II), fluorescence polarization competitor kit (Fluormone GS1). The following applies: cell lysate with recombinant human full-length GR. How it is done:
In order to measure the binding of compounds on the glucocorticoid receptor a commercially available kit was used (Glucocorticoid receptor competitor assay kit, PanVera Co., Madison, Wis., P2816). Briefly, a cell lysate containing recombinantly expressed human full-length glucocorticoid receptor was mixed with a fluorescently labeled glucocorticoid (1 nM Fluormone GS1) in the presence or absence of test compound. After one hour at room temperature, the fluorescence polarization (FP) of the samples were measured. […] Test molecules were analyzed in the concentration range from 2.4 nM to 40 microMolar.
(In fluorescence polarisation assays a small probe gives low polarisation when free and higher when bound to something large.)

For assay [2], the system named is AP-1 induced transcriptional activity. Kind of assay: Cellular Transrepressional Assay (AP-1 luciferase reporter in A549 cells, PMA-activated). In kind it is cell-based. The following applies: pAP-1-Luc, 10 ng/ml PMA, read-out: AP-1 (EC50, nM) (Cellular Transrepression Assay). In a few lines:
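A549 cells stably carrying a 7×AP-1-luciferase reporter, stimulated with 10 ng/ml PMA with or without compound (0.1 nM-40 μM) for 7 h. Luciferase luminescence read 10 min after reagent addition; repression is percentage decrease of PMA-alone signal, EC50 by curve fitting.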
Background: Reporter assays use an easily measured gene product as a stand-in for the process of interest.

Assay [3] deals with T2, human glucocorticoid receptor (Homo sapiens, UniProt P04150).
T2 construct: purified human recombinant full-length glucocorticoid receptor (2 nM); purchased Invitrogen Part # 2893
T2 sequence (P04150 1-777): T1 sequence (P04150 1-777)
Kind of assay: Glucocorticoid Receptor Binding Assay (I), fluorescence polarization competitor kit (Fluormone GS Red). The conditions noted are these: purified human recombinant full-length GR. An outline of the steps: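 Fluorescence polarization competition: full-length recombinant human GR (2 nM) incubated with 1 nM Fluormone GS Red plus test compound (8.5E-05 to 5 μM) for 2 h at room temperature in the dark before FP read-out.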

Where two headings read alike, the source gives them in different places. A value given as a limit tells only on which side of the number the result lay.

Broadly, the Ki is a dissociation constant, usually derived from enzyme kinetics or from competition with a known ligand. What is called EC50 is the concentration at which the effect is half-maximal. In the case of `CC(C)(C(c1ccccc1)c1ccc2c(cnn2-c2ccc(F)cc2)c1)C(C)(O)C(F)(F)F` (mixture of isomers) [Example 128, 1,1,1-Trifluoro-4-(1-(4-fluorophenyl)-1H-indazol-5-yl)-2,3,3-trimethyl-4-phenylbutan-2-ol], the Ki in assay [1] was 16 nM. Further, the EC50 in assay [2] (Homo sapiens, A549, 7 h) is greater than 10000 nM. Consider `CC(C)CC(c1ccc2c(cnn2-c2ccc(F)cc2)c1)C(C)(C)CNS(=O)(=O)CC(F)(F)F` (single isomer, unassigned) [Example 57A, 2,2,2-trifluoro-N-(3-(1-(4-fluorophenyl)-1H-indazol-5-yl)-2,2,5-trimethylhexyl)-ethanesulfonamide], for which, in assay [1], the inhibitory constant (Ki) is 59 nM. The EC50 in assay [2] (Homo sapiens, A549, 7 h) was greater than 10000 nM. Regarding `CC(C)CC(c1ccc2c(cnn2-c2ccc(F)cc2)c1)C(C)(C)CNS(=O)(=O)CC(F)(F)F` (single isomer, unassigned) [Example 57B, 2,2,2-trifluoro-N-(3-(1-(4-fluorophenyl)-1H-indazol-5-yl)-2,2,5-trimethylhexyl)-ethanesulfonamide], the Ki in assay [1] was 15 nM. In addition, in assay [2] (7 hours), the 50% effective concentration (EC50) was greater than 10000 nM. In the case of `CC(C)CC(c1ccc2c(cnn2-c2ccc(F)cc2)c1)C(C)(C)CNC(=O)NCC(F)(F)F` (single isomer, unassigned) [Example 58A, 1-(3-(1-(4-fluorophenyl)-1H-indazol-5-yl)-2,2,5-trimethylhexyl)-3-(2,2,2-trifluoroethyl)urea], in assay [1], the Ki stood at 14 nM. Besides, the EC50 in assay [2] (7 hours) was greater than 10000 nM. Turning to `CC(C)CC(c1ccc2c(cnn2-c2ccc(F)cc2)c1)C(C)(C)CNC(=O)NCC(F)(F)F` (single isomer, unassigned) [Example 58B, 1-(3-(1-(4-fluorophenyl)-1H-indazol-5-yl)-2,2,5-trimethylhexyl)-3-(2,2,2-trifluoroethyl)urea], in assay [1], the inhibition constant Ki is 8.8 nM. Besides, the EC50 in assay [2] (7 hours) turned out to be 106 nM. On to `CC(C)CC(c1ccc2c(cnn2-c2ccc(F)cc2)c1)C(C)(C)CNC(=O)CC(F)(F)F` (single isomer, unassigned) [Example 59B, 3,3,3-trifluoro-N-(3-(1-(4-fluorophenyl)-1H-indazol-5-yl)-2,2,5-trimethylhexyl)propanamide], for which the Ki in assay [1] was 9.3 nM. Further, in assay [2] (Homo sapiens, A549, 7 h), the EC50 was greater than 10000 nM. For `CC(C)(CNS(=O)(=O)CC(F)(F)F)C(c1ccccc1)c1ccc2[nH]ncc2c1` (stereo in doubt) [(R)-83, (S)-N-(3-(1H-indazol-5-yl)-2,2-dimethyl-3-phenylpropyl)-2,2,2-trifluoroethanesulfonamide], the Ki in assay [1] is 547 nM. Besides, the 50% effective concentration (EC50) in assay [2] (Homo sapiens, A549, 7 h) was greater than 10000 nM. Taken in the same sequence, the figures for `CC(C)(CNC(=O)C(F)(F)F)[C@H](c1ccccc1)c1ccc2c(cnn2-c2ccc(F)cc2)c1` [(R)-16, (R)-2,2,2-trifluoro-N-(3-(1-(4-fluorophenyl)-1H-indazol-5-yl)-2,2-dimethyl-3-phenylpropyl)acetamide] were 7.4 nM and 61 nM.

As to `CC(C)(CNC(=O)CC(F)(F)F)[C@H](c1ccccc1)c1ccc2c(cnn2-c2ccc(F)cc2)c1` [(R)-17, (R)-3,3,3-trifluoro-N-(3-(1-(4-fluorophenyl)-1H-indazol-5-yl)-2,2-dimethyl-3-phenylpropyl)-propanamide], the Ki in assay [1] is 12 nM. Also, the 50% effective concentration (EC50) in assay [2] (Homo sapiens, A549, 7 h) worked out at 99 nM. Consider `CC(C)(CNC(=O)CC(F)(F)F)[C@H](c1ccccc1)c1ccc2[nH]ncc2c1` [(R)-82, (R)-N-(3-(1H-indazol-5-yl)-2,2-dimethyl-3-phenylpropyl)-3,3,3-trifluoropropanamide], for which, in assay [1], the Ki amounted to 628 nM. Moreover, in assay [2] (Homo sapiens, A549, 7 h), the EC50 is greater than 10000 nM. With `CC(C)(CNC(=O)CC(F)(F)F)[C@@H](c1ccccc1)c1ccc2[nH]ncc2c1` [(S)-82, (S)-N-(3-(1H-indazol-5-yl)-2,2-dimethyl-3-phenylpropyl)-3,3,3-trifluoropropanamide], the Ki in assay [1] was 39 nM. Also, the EC50 in assay [2] (Homo sapiens, A549, 7 h) is greater than 10000 nM. Regarding `CC(C)(CNS(=O)(=O)CC(F)(F)F)[C@@H](c1ccccc1)c1ccc2[nH]ncc2c1` [(S)-83, (S)-N-(3-(1H-indazol-5-yl)-2,2-dimethyl-3-phenylpropyl)-2,2,2-trifluoroethanesulfonamide], the Ki in assay [1] worked out at 34 nM. The EC50 in assay [2] (Homo sapiens, A549, 7 h) was greater than 10000 nM. Taken in the same sequence, the figures for `CC(C)(C)CC(=O)NCC(C)(C)[C@@H](c1ccccc1)c1ccc2c(cnn2-c2ccc(F)cc2)c1` [Example 1, (S)-N-(3-(1-(4-fluorophenyl)-1H-indazol-5-yl)-2,2-dimethyl-3-phenylpropyl)-3,3-dimethylbutanamide] were 8.3 nM and 1280 nM. Take `CC(C)(CNS(C)(=O)=O)[C@@H](c1ccccc1)c1ccc2c(cnn2-c2ccc(F)cc2)c1` [Example 6, (S)-N-(3-(1-(4-fluorophenyl)-1H-indazol-5-yl)-2,2-dimethyl-3-phenylpropyl)methanesulfonamide]: the Ki in assay [1] was 4.9 nM. Moreover, the EC50 in assay [2] (Homo sapiens, A549, 7 h) is 47 nM.

Consider `CC(C)S(=O)(=O)NCC(C)(C)[C@@H](c1ccccc1)c1ccc2c(cnn2-c2ccc(F)cc2)c1` [Example 7, (S)-N-(3-(1-(4-fluorophenyl)-1H-indazol-5-yl)-2,2-dimethyl-3-phenylpropyl)propane-2-sulfonamide], for which the Ki in assay [1] was 6.1 nM. In addition, the EC50 in assay [2] (Homo sapiens, A549, 7 h) worked out at 139 nM. `CC(C)(CNC(=O)C1(C(F)(F)F)CC1)[C@@H](c1ccccc1)c1ccc2c(cnn2-c2ccc(F)cc2)c1` [Example 10, (S)-N-(3-(1-(4-fluorophenyl)-1H-indazol-5-yl)-2,2-dimethyl-3-phenylpropyl)-1-(trifluoromethyl)cyclopropanecarboxamide]: the inhibition constant (Ki) in assay [1] stood at 19 nM. Besides, the EC50 in assay [2] (Homo sapiens, A549, 7 h) was determined as 143 nM.

Turning to `CCS(=O)(=O)NCC(C)(C)[C@@H](c1ccccc1)c1ccc2c(cnn2-c2ccc(F)cc2)c1` [Example 11, (S)-N-(3-(1-(4-fluorophenyl)-1H-indazol-5-yl)-2,2-dimethyl-3-phenylpropyl)ethanesulfonamide], the Ki in assay [1] is 16 nM. Further, in assay [2] (Homo sapiens, A549, 7 h), the EC50 was 29 nM. The matching figures for `CCCS(=O)(=O)NCC(C)(C)[C@@H](c1ccccc1)c1ccc2c(cnn2-c2ccc(F)cc2)c1` [Example 13, (S)-N-(3-(1-(4-fluorophenyl)-1H-indazol-5-yl)-2,2-dimethyl-3-phenylpropyl)propane-1-sulfonamide]: 19 nM and 181 nM. As to `CC(C)(CNC(=O)C(F)(F)C(F)(F)F)[C@@H](c1ccccc1)c1ccc2c(cnn2-c2ccc(F)cc2)c1` [Example 19, (S)-2,2,3,3,3-pentafluoro-N-(3-(1-(4-fluorophenyl)-1H-indazol-5-yl)-2,2-dimethyl-3-phenylpropyl)propanamide], the Ki in assay [1] came out at 11 nM. Further, the EC50 in assay [2] (Homo sapiens, A549, 7 h) is greater than 10000 nM. Taken in the same sequence, the figures for `CC(C)(CNC(=O)Cc1cccs1)[C@H](c1ccccc1)c1ccc2c(cnn2-c2ccc(F)cc2)c1` [Example 21, (R)-N-(3-(1-(4-fluorophenyl)-1H-indazol-5-yl)-2,2-dimethyl-3-phenylpropyl)-2-(thiophen-2-yl)acetamide] were 39 nM and 266 nM. As to `CC(=O)NCC(C)(C)[C@H](c1ccccc1)c1ccc2c(cnn2-c2ccc(F)cc2)c1` [Example 22, (R)-N-(3-(1-(4-fluorophenyl)-1H-indazol-5-yl)-2,2-dimethyl-3-phenylpropyl)acetamide], the Ki in assay [1] worked out at 17 nM. In addition, in assay [2] (Homo sapiens, A549, 7 h), the EC50 amounted to 679 nM. For the compound `CC(C)CC(c1ccc2c(cnn2-c2ccc(F)cc2)c1)C(C)(C)CNC(=O)N(C)C` (stereo not drawn) [Example 65, 3-(3-(1-(4-fluorophenyl)-1H-indazol-5-yl)-2,2,5-trimethylhexyl)-1,1-dimethylurea], the inhibitory constant (Ki) in assay [1] was determined as 1.4 nM. `CC(C)NC(=O)NCC(C)(C)C(C)(C)c1ccc2c(cnn2-c2ccc(F)cc2)c1` [Example 118, 1-(3-(1-(4-fluorophenyl)-1H-indazol-5-yl)-2,2,3-trimethylbutyl)-3-isopropylurea]: in assay [3], the Ki amounted to 29 nM. Besides, the EC50 in assay [2] (Homo sapiens, A549, 7 h) turned out to be 2800 nM.

Values taken from patent US8198311B2, “Modulators of glucocorticoid receptor, AP-1, and/or NF-κB activity and use thereof” (Bristol-Myers Squibb Company, priority 2006, dated 2012).
